From patent US20140134135A1, “METHODS AND COMPOSITIONS FOR PRESERVING LEAN BODY MASS DURING WEIGHT LOSS” (NESTEC SA, priority 2011, published 2014)

Assay: Four-month weight loss study with oral OEA in the diet; body weight and body composition by DEXA
Type: in vivo, dogs (adult Labradors)
Text: The physiological effects of regular oral OEA administration were investigated. OEA was provided as a supplement to dogs for four months to study the effect on body weight loss and body composition. Seventeen adult Labradors participated in the study. Males with greater than 22% body fat and females with greater than 26% body fat were selected. Based on maintenance energy requirements (MER), body weight and percentage of body fat, the dogs were randomly assigned into two groups. The control group (N=9) received a standard dry adult dog food (the control diet without any OEA). The test group (N=8) received the selected dose of OEA incorporated into the standard diet. The dogs were fed 25% less than their MER for 3 months and an additional 15% less for the next month. Body weight was recorded weekly and dual X-ray absorptiometry (DEXA) scans were performed at baseline and every month.

[1] = dogs fed OEA containing diet, calorie restricted, four months, chronic oral
[2] = dogs fed a weight loss diet with OEA

Compound: CCCCCCCC/C=C\CCCCCCCC(=O)NCCO [OEA, oleoylethanolamide]
- Fat Loss (g/kg body weight loss) [1]: 561 g/kg body weight loss
- Lean Loss (g/kg body weight loss) [1]: 469 g/kg body weight loss
- body fat loss versus weight loss diet without OEA (in words) [2]: more loss in body fat
- lean body mass loss versus weight loss diet without OEA (in words) [2]: reduced loss of lean body mass
- less fat lost by dogs fed the control diet than by dogs fed the OEA containing diet, for every kilogram of body weight loss (end of the four month study, control diet versus OEA diet): 52%
- less lean body mass lost than dogs fed the control diet, for every kilogram of body weight loss (end of the four month study, versus control diet): 20%
- change in body fat (end of the four month study, control diet −0.3%): −1.8%
- change in lean body mass (end of the four month study, control diet −1432.2 g): -1166.6 g
